Experimental data as given in patent publication US20190192699A1, “NUCLEAR IMAGING AND RADIOTHERAPEUTICS AGENTS TARGETING CARBONIC ANHYDRASE IX AND USES THEREOF” (THE JOHNS HOPKINS UNIVERSITY, priority 2016, published 2019).

Assays:
CAIX [1] = molecular target: T1, CAIX (Homo sapiens, UniProt Q16790); test: Competitive fluorescence polarization assay for [Al19F]XYIMSR-04, [63/65Cu]XYIMSR-06 and [175Lu]XYIMSR-01; assay type: binding; design: purchased R&D Systems; conditions: 100 nM CAIX, 80 nM FITC-labeled ligand; read-out: IC50, competitive fluorescence polarization (similar method)
From the text: (§1) General Procedures. Solvents and chemicals obtained from commercial sources were of analytical grade or better and used without further purification. Fmoc-protected azidolysine, HBTU, and N-α-fmoc-L-aspartic acid α-tert-butyl ester were purchased from Chem Impex International, Inc. (Wooddale, Ill.). Carrier-free [^111In]InCl3 was purchased from MDS Nordion (Ottawa, ON, Canada). DOTA-NHS-ester (1,4,7,10-tetraazacyclododecane-1,4,7,10-tetraacetic acid mono N-hydroxysuccinimide ester) was purchased from Macrocyclics, Inc. (Dallas, Tex.). Indium (III) nitrate, triethylsilane (Et3SiH), N,N-diisopropylethylamine (DIEA), triethylamine (TEA), piperidine, 4,4-bis(4-hydroxyphenyl)valeric acid, copper iodide (CuI), and tris[(1-benzyl-1H-1,2,3-triazol-4-yl)methyl]amine (TBTA) were purchased from Sigma-Aldrich (Saint Louis, Mo.). Pre-loaded O-bis-(aminoethyl)ethylene glycol on trityl resin was purchased from EMD Millipore (Billerica, Mass.). Flash chromatography was performed using MP SiliTech 32-63 D 60 Å silica gel purchased from Bodman (Aston, Pa.). Recombinant human CAIX was purchased from R&D Systems (Minneapolis, Minn.). 1H NMR spectra were recorded on a Bruker Ultrashield 500 MHz spectrometer. Chemical shifts (δ) were reported in ppm downfield by reference to proton resonances resulting from incomplete deuteration of the NMR solvent. ESI mass spectra were obtained on a Bruker Daltonics Esquire 3000 Plus spectrometer (Billerica, Mass.).
Competitive Fluorescence Polarization Assay for [Al^19F]XYIMSR-04, [^63/65Cu]XYIMSR-06, and [^175Lu]XYIMSR-01. Fluorescence polarization (FP) experiments were performed in 21 μL of the assay buffer (12.5 mM Tris-HCl, pH 7.5, 75 mM NaCl) in transparent flat bottom 384 well Small Volume™ LoBase Microplates (Greiner Bio-One, Frickenhausen Germany). The FP reaction employed 100 nM of purified CAIX (R&D systems, Minneapolis, Minn.) and 80 nM FITC-labeled ligand within the assay buffer. The FP values were measured as mP units using the Safire2™ plate reader (Tecan, Morrisville, N.C.) with excitation at 475 nm and emission at 532 nm emission. 100 nM CAIX was incubated with serially diluted (from 8 μM to 488.2 fM) concentrations of the […] targeting molecules, 2, [Al^19F]XYIMSR-04, [^63/65Cu]XYIMSR-06 and [^175Lu]XYIMSR-01 for 30 min at room temperature in 384 well plates. 80 nM FITC-labeled ligand was added to each well and the reaction was incubated for 30 min at room temperature followed by FP measurements. Experiments were carried out in triplicate and the concentration resulting in 50% response (IC50) was calculated in GraphPad Prism 5 (GraphPad Software, La Jolla, Calif.) using the sigmoidal dose-response regression function.

CAIX [2] = molecular target: T1, CAIX; test: Competitive fluorescence polarization assay for [113/115In]XYIMSR-01; assay type: binding; design: purchased R&D Systems; conditions: for IC50: 100 nM CAIX, 80 nM FITC-labeled 8, read-out: IC50, inhibition of fluorescence polarization of FITC labeled 8; for binding affinity to CAIX (in words): competitive fluorescence polarization
From the text: as §1
Competitive Fluorescence Polarization Assay for [^113/115In]XYIMSR-01. Fluorescence polarization (FP) experiments were performed in 21 μL of the assay buffer (12.5 mM Tris-HCl, pH 7.5, 75 mM NaCl) in black flat bottom 384-well microplates (Corning, Inc., New York, N.Y.) The FP reaction employed 100 nM of purified CAIX (R&D systems, Minneapolis, Minn.) and 80 nM FITC-labeled 8 (Wichert, et al., 2015) within the assay buffer. The FP values were measured as mP units using the Victor3 multi-label plate reader equipped with excitation (485 nm) and emission (535 nm) filters (Perkin Elmer, Waltham, Mass.). 100 nM CAIX was incubated with serially diluted (from 1 μM to 61 fM) concentrations of the three targeting molecules, 2, XYIMSR-01, and [^113/115In]XYIMSR-01 for 30 min at room temperature in 384-well plates. 80 nM 8 was added to each well and the reaction was incubated for 30 min at room temperature followed by FP measurement. Experiments were carried out in triplicate and the concentration resulting in 50% response (IC50) was calculated in GraphPad Prism 5 (GraphPad Software, La Jolla, Calif.) using the sigmoidal dose-response regression function.

CC(CCC(=O)N[C@@H](CC(=O)N[C@@H](CC(=O)N[C@@H](CCCCn1cc(CCCC(=O)Nc2nnc(S(N)(=O)=O)s2)nn1)C(=O)NCCOCCOCCNC(=O)CN1CCN2CCN(CC1)CC(=O)[O][Al]([F])[O]C(=O)C2)C(=O)O)C(=O)O)(c1ccc(O)cc1)c1ccc(O)cc1 [[Al^19F]XYIMSR-04, [Al^19F] 2,2′-(7-((14S,18S,22S)-18,22-dicarboxy-27,27-bis(4-hydroxyphenyl)-2,13,16,20,24-pentaoxo-14-(4-(4-(4-oxo-4-((5-sulfamoyl-1,3,4-thiadiazol-2-yl)amino)butyl)-1H-1,2,3-triazol-1-yl)butyl)-6,9-dioxa-3,12,15,19,23-pentaazaoctacosyl)-1,4,7-triazonane-1,4-diyl)diacetic acid]
IC50 (CAIX [1]): 96.7 ± 3.3 nM

CC(CCC(=O)N[C@@H](CC(=O)N[C@@H](CC(=O)N[C@@H](CCCCn1cc(CCCC(=O)Nc2nnc(S(N)(=O)=O)s2)nn1)C(=O)NCCOCCOCCNC(=O)CN1CCN(CC(=O)O)CCN(CC(=O)O)CCN(CC(=O)O)CC1)C(=O)O)C(=O)O)(c1ccc(O)cc1)c1ccc(O)cc1.[Lu] [[^175Lu]XYIMSR-01, [^175Lu]2,2′,2″-(10-((14S,18S,22S)-18,22-dicarboxy-27,27-bis(4-hydroxyphenyl)-2,13,16,20,24-pentaoxo-14-(4-(4-(4-oxo-4-((5-sulfamoyl-1,3,4-thiadiazol-2-yl)amino)butyl)-1H-1,2,3-triazol-1-yl)butyl)-6,9-dioxa-3,12,15,19,23-pentaazaoctacosyl)-1,4,7,10-tetraazacyclododecane-1,4,7-triyl)triacetic acid]
IC50 (CAIX [1]): 122 ± 3.8 nM

CC(CCC(=O)N[C@@H](CC(=O)N[C@@H](CC(=O)N[C@@H](CCCCn1cc(CCCC(=O)Nc2nnc(S(N)(=O)=O)s2)nn1)C(=O)NCCOCCOCCNC(=S)Nc1ccc(CC2CN(CC(=O)O)CCN(CC(=O)O)CCN2CC(=O)O)cc1)C(=O)O)C(=O)O)(c1ccc(O)cc1)c1ccc(O)cc1.[Cu] (stereo partly drawn) [[^63/65Cu]XYIMSR-06, [^63/65Cu]2,2′,2″-(2-(4-(3-((11S,15S,19S)-15,19-dicarboxy-24,24-bis(4-hydroxyphenyl)-10,13,17,21-tetraoxo-11-(4-(4-(4-oxo-4-((5-sulfamoyl-1,3,4-thiadiazol-2-yl)amino)butyl)-1H-1,2,3-triazol-1-yl)butyl)-3,6-dioxa-9,12,16,20-tetraazapentacosyl)thioureido)benzyl)-1,4,7-triazonane-1,4,7-triyl)triacetic acid]
IC50 (CAIX [1]): 156 ± 4.3 nM

CC(CCC(=O)N[C@@H](CC(=O)N[C@@H](CC(=O)N[C@@H](CCCCn1cc(CCCC(=O)Nc2nnc(S(N)(=O)=O)s2)nn1)C(=O)NCCOCCOCCNC(=O)CN1CCN(CC(=O)O)CCN(CC(=O)O)CCN(CC(=O)O)CC1)C(=O)O)C(=O)O)(c1ccc(O)cc1)c1ccc(O)cc1 [XYIMSR-01, 2,2′,2″-(10-((14S,18S,22S)-18,22-dicarboxy-27,27-bis(4-hydroxyphenyl)-2,13,16,20,24-pentaoxo-14-(4-(4-(4-oxo-4-((5-sulfamoyl-1,3,4-thiadiazol-2-yl)amino)butyl)-1H-1,2,3-triazol-1-yl)butyl)-6,9-dioxa-3,12,15,19,23-pentaazaoctacosyl)-1,4,7,10-tetraazacyclododecane-1,4,7-triyl)triacetic acid]
IC50 (CAIX [2]): 67 nM
binding affinity to CAIX (in words) (CAIX [2]): high binding affinity

CC(CCC(=O)NC(CC(=O)NC(CC(=O)NC(CCCCn1cc(CCCC(=O)Nc2nnc(S(N)(=O)=O)s2)nn1)C(=O)NCCOCCOCCNC(=O)CN1CCN(CC(=O)O)CCN(CC(=O)O)CCN(CC(=O)O)CC1)C(=O)O)C(=O)O)(c1ccc(O)cc1)c1ccc(O)cc1 (stereo not shown) [[^113/115In]XYIMSR-01]
IC50 (CAIX [2]): 108 nM
binding affinity to CAIX (in words) (CAIX [2]): high binding affinity
